# Key:
# [1] = system: persistent and neuropathic pain; settings: animal studies; cited from earlier work
# human neuropathic pain = settings: in the clinic; cited from earlier work
# [2] = system: rats with formalin injection into one hindpaw; assay: Mechanical conflict device (MCD) test, inflammatory pain from formalin injection into one hindpaw; type: in vivo, rat; settings: formalin 0.2%, s.c. into one hindpaw, morphine 2.5 mg/kg i.p.
# Description: (§1) The mechanical conflict device can be used in various methods. With reference now to FIGS. 3-7, the MCD 10 of the present technology can be used to measure the response of a laboratory animal 17, such as a rat, to noxious mechanical stimuli. In this test, exit or escape from an aversive environment to a preferred environment is deterred by a noxious mechanical stimulus represented by the pins 60 on a raised pin platform 80, as shown in FIG. 6. In an initial MCD 10 training period, the pins 60 are lowered below the alley floor 50 and the laboratory animal 17 is placed into the holding compartment 20. […] The holding compartment 20 and the alley compartment 30 can be illuminated with normal room lighting. In some embodiments, the holding compartment 20 and/or the alley compartment 30 are supplemented by a light source 220, for example, a high-intensity, white-light LED array positioned above the alley compartment 30, as shown in FIGS. 3-6. At that time, panel walls 110 and 120 can be raised to allow the laboratory animal 17 to learn that it can exit from the mildly aversive stimuli (the light 220) in the holding compartment 20 and alley compartment 30 and move across the floor 50, passing into the more comfortable compensatory compartment 40 where it is generally dim and provides the laboratory animal 17 with a generally more rewarding area. […]
# CCI rats = assay: Mechanical conflict device (MCD) test, neuropathic pain from chronic constriction injury (CCI) of the left sciatic nerve; type: in vivo, rat; settings: pregabalin 10 and 30 mg/kg, i.p.
# Description: as §1
structure (smiles),measurement,setting,value
COc1ccccc1CN(C[C@@H](Cc1c[nH]c2ccccc12)NC(=O)CN1CCC(N2CCCCC2)CC1)C(C)=O [LY 303870],Relief of persistent and neuropathic pain,[1],did relieve persistent and neuropathic pain
same,Analgesia against human neuropathic pain,human neuropathic pain,failed
CN1CC[C@]23c4c5ccc(O)c4O[C@H]2[C@@H](O)C=C[C@H]3[C@H]1C5 [morphine],Increased latency to exit produced by formalin injection,[2]; FIG. 14,not reduced
same,Increased time spent on the stimulus array produced by formalin injection,[2]; FIG. 15,attenuated
CC(C)C[C@H](CN)CC(=O)O [pregabalin],Latency to exit (light chamber),CCI rats; FIG. 12,modulated
same,Time spent on the stimulus array,CCI rats; FIG. 13,not modulated
